The results in this text go back to patent US20040019022A1, “Use of 2,3 alkylcarbonyloxybenzoic acids, derivatives and analogues therefrom in the treatment of tissue and cellular dysfunction, damage and injury in mammals” (priority 2002, published 2004).

Experiment [1] concerns guinea pigs administered aerosolized LPS. Kind of experiment: Aerosolized LPS exposure in guinea pigs, bronchoalveolar lavage (BAL) 24 h after LPS. Particulars: guinea pig. It is filed as in vivo. On the procedure: The potential therapeutic effect of 2,3-alkylcarbonyloxybenzoic acids is exemplified by data generated in the study of 2,3-diacetoxybenzoic acid in guinea pigs. 2,3-diacetoxybenzoic acid was administered via intra-peritoneal injection to guinea pigs administered aerosolized LPS. Each animal was treated with 150 mg/kg of 2,3-diacetoxybenzoic acid or vehicle 1 hour prior to and 4 hours following LPS administration. Twenty four hours following administration of LPS, bronchoalveolar lavage (BAL) was performed. Intra-peritoneal administration of 2,3-diacetoxybenzoic acid appeared to have no effect on LPS-induced neutrophil recruitment into the lung. However, 2,3-diacetoxybenzoic acid treatment did produce a statistically significant reduction in albumin leakage (44%), a component of LPS-induced edema formation indicating a decrease in lung vascular permeability.

The test system of experiment [2] is rat model of cecal ligation and perforation (CLP)-induced sepsis. Kind of experiment: Awake rat model of cecal ligation and perforation (CLP)-induced sepsis, acute lung injury. It is filed as in vivo. The source says: An awake rat model of cecal ligation and perforation (CLP)-induced sepsis was employed to examine the therapeutic effect of 2,3-diacetoxybenzoic acid in sepsis induced acute lung injury. Oxidative stress resulting in increased lung permeability is characteristic of the onset and progression of acute lung injury in this model. […] 2,3-Diacetoxybenzoic acid treated animals appeared to have improvement in sepsis-associated symptoms such as lethargy, diarrhea, anorexia, and abdomenal distention.

The mark [3] stands for this setting: 150 mg/kg i.p. 1 h prior to and 4 h post LPS, BAL 24 h after LPS, mean ± SEM, n = 5.
Where [4] appears, read: 2.5 mg/kg/h continuous infusion.
Setting [5] is: 2.5 mg/kg/h continuous infusion from 1 h to 24 h after induction of sepsis, 24 hours, mean ± SEM.

As for `CC(=O)Oc1cccc(C(=O)O)c1OC(C)=O` [DABA, 2,3-diacetoxybenzoic acid], the “effect on LPS-induced neutrophil recruitment into the lung” value in experiment [1] (150 mg/kg i.p. 1 h prior to and 4 h following LPS) is given as “no effect”. The “reduction in albumin leakage” value in experiment [1] (150 mg/kg i.p. 1 h prior to and 4 h following LPS, versus vehicle, statistically significant) stood at 44%. In experiment [1] (setting [3]), the “Albumin (BAL fluid)” value amounted to 605 ± 78 μg/mL BALF, the “Neutrophil (BAL fluid)” value is 80 ± 11 ×10^6/mL BALF and the “Total Cell (BAL fluid)” value is recorded as 112 ± 14 ×10^6/mL BALF. Moreover, in experiment [2] (setting [4]), the body temperature result is on record as “normalized”; the cardiac output result is recorded as “normalized”; the respiratory rate result is on record as “normalized”; the “sepsis-associated symptoms such as lethargy, diarrhea, anorexia, and abdomenal distention” value was “improvement”. In addition, the “lung microvascular permeability increases” value in experiment [2] (2.5 mg/kg/h continuous infusion from 1 h to 24 h after induction of sepsis) was “reduced”. Also, the “Systemic WBC, 1 hour” value in experiment [2] (2.5 mg/kg/h continuous infusion from 1 h to 24 h after induction of sepsis, 1 hour, mean ± SEM) is reported as 6.7 ± 1.1 ×10^9/liter. Also, in experiment [2] (setting [5]), the “BAL WBC, 24 hours” value is on record as 0.04 ± 0.02 ×10^9/liter; the “BAL protein, 24 hours” value was 1.45 ± 1.73 mg/dL; the “Systemic WBC, 24 hours” value is on record as 3.6 ± 1.4 ×10^9/liter.
